Experimental findings from PubChem BioAssay AID1794825 are described below.

The target in the assay is Sodium- and chloride-dependent glycine transporter 2 (Homo sapiens) (UniProt Q9Y345). Kind of assay: PubChem AID 1794825. The following applies: HEK-293 SLC6A5 OE, FLIPR membrane potential dye.
Chain of Sodium- and chloride-dependent glycine transporter 2 (Homo sapiens) (Q9Y345 whole entry, looked up): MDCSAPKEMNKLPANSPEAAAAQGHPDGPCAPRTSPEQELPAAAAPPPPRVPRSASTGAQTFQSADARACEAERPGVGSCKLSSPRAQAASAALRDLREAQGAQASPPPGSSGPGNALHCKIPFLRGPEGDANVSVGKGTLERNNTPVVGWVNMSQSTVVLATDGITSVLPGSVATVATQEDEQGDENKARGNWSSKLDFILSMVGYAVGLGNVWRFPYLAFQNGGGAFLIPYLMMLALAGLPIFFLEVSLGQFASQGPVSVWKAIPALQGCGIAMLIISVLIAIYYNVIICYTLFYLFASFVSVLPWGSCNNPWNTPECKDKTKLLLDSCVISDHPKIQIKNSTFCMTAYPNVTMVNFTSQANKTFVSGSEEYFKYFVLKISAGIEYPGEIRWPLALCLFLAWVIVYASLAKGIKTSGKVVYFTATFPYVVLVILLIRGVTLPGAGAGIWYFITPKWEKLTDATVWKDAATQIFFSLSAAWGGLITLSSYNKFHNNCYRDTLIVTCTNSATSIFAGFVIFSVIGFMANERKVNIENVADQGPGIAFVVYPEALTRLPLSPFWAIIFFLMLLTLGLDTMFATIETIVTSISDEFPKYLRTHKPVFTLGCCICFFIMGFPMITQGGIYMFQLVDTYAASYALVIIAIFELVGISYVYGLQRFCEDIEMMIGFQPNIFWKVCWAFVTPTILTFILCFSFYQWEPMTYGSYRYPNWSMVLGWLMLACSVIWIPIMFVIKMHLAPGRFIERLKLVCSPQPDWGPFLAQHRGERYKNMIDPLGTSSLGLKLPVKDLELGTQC

In general, EC50 refers to the concentration at which the effect is half-maximal. As to `NCC(=O)O`, the EC50 was 128 µM.
